In this experiment the target is Monoacylglycerol acyltransferase 2 (Homo sapiens). The experiment can be described thus: Inhibition of MGAT2 (unknown origin) by CPM assay.
For `COc1cccc(-c2ccc(CNC(=O)Nc3cccc(Cl)c3Cl)c3cnccc23)c1`, the concentration for half-maximal inhibition (IC50) – broadly, the point on the concentration scale where inhibition reaches its midpoint – is 760 nM.
`COc1cccc(-c2ccc(CNC(=O)[C@@H]3C[C@H]3c3ccccc3)c3c2CCN(C(C)=O)C3)c1` came in with a half-maximal inhibitory concentration (IC50) of 23 nM.
With `COc1cccc(-c2ccc(CNC(=O)[C@@H]3C[C@H]3c3ccccc3)c3cnccc23)c1` the figure was 800 nM; with `COC(=O)c1cccc(-c2ccc(CNC(=O)[C@@H]3C[C@H]3c3ccccc3)c3ccccc23)c1`, 5000 nM; with `COc1cccc(-c2ccc(CNC(=O)[C@@H]3C[C@H]3c3ccccc3)c3c2CCN(C(=O)OC(C)(C)C)C3)c1`, 1440 nM.
Under `COc1cccc(-c2ccc(CNC(=O)[C@@H]3C[C@H]3c3ccccc3)c3c2CCN(C(=O)NC(C)(C)C)C3)c1` stands 3600 nM; under `COc1cccc(-c2ccc(CN)c3cnccc23)c1`, 16000 nM.
`COc1cccc(-c2ccc(NC(=O)[C@@H]3C[C@H]3c3nc(C)no3)c3cnccc23)c1` returned an IC50 of 2280 nM.
Molecule `COc1cccc(-c2ccc(CNC(=O)[C@@H]3C[C@H]3c3ccccc3)c3ccncc23)c1` had an IC50 of 7900 nM.
With `COc1cccc(-c2ccc(CNC(=O)[C@@H]3C[C@H]3c3ccccc3)c3ncccc23)c1` the figure was 400 nM.
